Measurements from the NIST ThermoML archive (doi:10.1016/j.fluid.2019.03.019).
Numbers after ± are expanded uncertainties.

Settings: Liquid; for mass density: 298.15 K, 101.33 kPa, Vibrating tube method; for vapor or sublimation pressure: Closed cell (Static) method

| mass density | vapor or sublimation pressure (393.15 K) | vapor or sublimation pressure (362.65 K) | vapor or sublimation pressure (363.15 K) | vapor or sublimation pressure (383.15 K) | vapor or sublimation pressure (391.95 K) | vapor or sublimation pressure (392.95 K) | vapor or sublimation pressure (403.15 K) | vapor or sublimation pressure (413.15 K) | vapor or sublimation pressure (420.95 K) | vapor or sublimation pressure (422.95 K) | vapor or sublimation pressure (423.15 K) | SMILES |
| --- | --- | --- | --- | --- | --- | --- | --- | --- | --- | --- | --- | --- |
| 785.09 ± 0.13 kg/m3 | 429 ± 7 kPa |  |  |  |  |  |  |  |  |  |  | CCO [ethanol] |
|  | 199 ± 6 kPa |  |  |  |  |  |  |  |  |  |  | O [water] |
| 786.42 ± 0.13 kg/m3 | 640 ± 7 kPa | 251 ± 6 kPa | 255 ± 6 kPa | 481 ± 6 kPa | 618 ± 6 kPa | 636 ± 7 kPa | 843 ± 7 kPa | 1092 ± 7 kPa | 1316 ± 7 kPa | 1380 ± 8 kPa | 1387 ± 8 kPa | CO [methanol] |
| 1063.24 ± 0.1 kg/m3 |  |  |  | 187 ± 6 kPa |  |  | 320 ± 6 kPa | 414 ± 6 kPa |  |  |  | COC(=O)OC [dimethyl carbonate] |
